Assays:
[1] = system: glucosyl transferases (GTF); experiment: Inhibition of glucosyl transferases (GTF): amount of synthesized insoluble glucan (weighing); type: biochemical, Streptococcus sobrinus ATCC 33478; settings: 24 hours at 37° C.
Protocol: (§1) A strain of Streptococcus sobrinus ATCC 33478 is placed in 1 liter of BHI (brain heart infusion) medium enriched in glucose (10 g/L final concentration) in anaerobiosis at 37° C. for 18 hours. This bacterial medium, the pH of which was brought back to 6.5 by means of a NaOH 1N solution, is then centrifuged for 30 minutes at 8,000 rpm at 4° C. The glucosyl transferase, present in the supernatant is concentrated by precipitation with ammonium sulfate. The latter (50% w/saturation v) is gradually added to the supernatant held at 4° C. under stirring for 30 minutes. The mixture is then centrifuged at 8,000 rpm, 4° for 30 minutes. The pellet, rich in glucosyl transferase, is then taken up with phosphate/potassium K2HPO4 buffer (10 mM, pH 10.5), dialyzed (MWC 6-8000; width 14.6 mm) for 16 hours and then frozen at −20° C. This is the solution of purified GTF. […]
(§2) The results are expressed as inhibition percentages relatively to control solutions (ultra pure water): • the inhibition percentage of the initial rate of the enzymatic reaction (noted as “fructose” in the following table of results) on the one hand • the inhibition percentage of formation of insoluble glucan produced after 24 hours of incubation at 37° C. […]
The amount of soluble glucan is measured 24 hours after the beginning of the enzymatic reaction. […]

[2] = system: glucosyl transferases (GTF); experiment: Inhibition of glucosyl transferases (GTF): initial reaction rate, released fructose (DNS test); type: biochemical, Streptococcus sobrinus ATCC 33478
Protocol: as §1, with “minutes.” for “minutes. The pellet, rich in glucosyl transferase, is then taken up with phosphate/potassium K2HPO4 buffer (10 mM, pH 10.5), dialyzed (MWC 6-8000; width 14.6 mm) for 16 hours and then frozen at −20° C. This is the solution of purified GTF.”
as §2
Dextran interferes on the whole of the colorimetric methods for assaying proteins, because dextran particles diffract light and generate parasitic absorbance. The amount of glucosyl transferase is therefore measured by its activity under standard conditions. […]

[3] = system: Porphyromonas; experiment: Preventive action on an experimental buccal biofilm model, Porphyromonas count; type: cell-based, Porphyromonas gingivalis ATCC 33277; settings: fluorinol compared with NaF, each combined with grape seed extract
Protocol: The bacterial strains used are: • Streptococcus mutans ATCC 25175 • Streptococcus sobrinus ATCC 33478 • Porphyromonas gingivalis ATCC 33277
These different bacteria, cultivated in their specific medium, are inoculated into 10 mL of universal culture medium FUM (Fluid Universal Medium, composition of the medium in Annex 1), and then incubated in anaerobiosis at 37° C. for 24 hours.
After checking the purity with a microscope, the series of cultures are independently adjusted to OD550 1.0±0.05 (i.e. about 10^7 cells per milliliter) by dilutions with FUM. […]
Serial dilutions to 1:10 of this cell suspension are carried out until concentrations of 10^−2 and 10^−4 are obtained, and then 50 μL of these dilutions are spread over the 4 specific geloses used: mitis salivarius agar, MRS, wilkins chalgren agar (WCA) and blood geloses. The geloses are then placed in anaerobiosis at 37° C. for 48-72 hours and the then the number of formed colonies for each species is counted. […]
The number of colonies formed after 48-72 hours of incubation of the molecules with bacterial biofilms is expressed, after counting, in Colony Forming Units per analyzed Biofilm (or CFU/Biofilm) by the formula:
[Number of counted colonies×dilution factor (10^2 to 10^4)]/Inoculum volume (0.05 mL) […]

F.OCc1cccnc1 [fluorinol, 3-pyridyl methanol hydrofluoride]
synthesis of insoluble glucan ([1]; fluorinol alone 0.68%): inefficient
synthesis of insoluble glucan ([1]; fluorinol alone 1.02%): inefficient
inhibition percentage of the initial enzymatic reaction (fructose) ([2]; fluorinol alone 0.68%): 10.3%
inhibition percentage of the initial enzymatic reaction (fructose) ([2]; fluorinol alone 1.02%): 20.6%
effect of potentialization of the grape seed extract on Porphyromonas [3]: larger than that of NaF
